Like-named read-outs stand apart in the source and are kept apart here.
What was measured:
[1] = system: cisplatin-resistant ovarian cancer cell line A2780cis; experiment: Caspase-3/7 activity assay (apoptotic cell death), compound alone or with cisplatin; assay type: cell-based, human; settings: for caspase-3/7 activity (Lum), compound with cisplatin / caspase-3/7 activity (Lum), compound alone / caspase-3/7 activity (Lum) with compound and cisplatin (20 μM) / caspase-3/7 activity (Lum) with compound alone: 20 h; for activity in the screen (Caspase-3/7 activity and microscopic examination), active / inactive: alone or in the presence of cisplatin; for activity in the screen (Caspase-3/7 activity and microscopic examination), active / inactive / Caspase-3/7 activity upon combination with cisplatin compared to cisplatin alone or compound alone / activity in the Caspase-3/7 activity assay: in words; for activity in the Caspase-3/7 activity assay: possibly interference with the assay system; for caspase-3/7 activity (Lum) with compound and cisplatin (20 μM) / caspase-3/7 activity (Lum) with compound alone: Table 6; for caspase-3/7 activity (Lum) with compound alone: untreated cells 9 ± 1
Description: Cell proliferation was determined using a CyQUANT Direct Cell Proliferation Assay kit (Invitrogen), the activity of caspase-3/7 was measured using a Caspase-Glo 3/7 Assay Systems (Promega, Madison, Wis.), and the MTS calorimetric survival assay was performed using the CellTiter 96 AQueous One Solution Cell Proliferation Assay kit (Promega, Madison, Wis.), according to the manufacturer's instructions. The survival fractions were calculated after setting untreated control cells at 100%. The data were plotted and curve fitted using GraphPad Prism software. To quantify the number of cells with active caspase-3, cells were fixed with 4% paraformaldehyde (Electron microscopy sciences, Hatfield, Pa.), stained with Alexa Fluor-488 conjugated antibody against cleaved caspase-3 (Asp175) (Cell Signaling Technology, Danvers, Mass.) followed by flow cytometry. An FITC Annexin V Apoptosis Detection Kit (BD PharMingen, San Diego, Calif.) was used to quantify apoptotic cells, according to the manufacturer's instructions.
A Caspase-3/7 assay was performed to evaluate the activity of the 36 compounds of FIG. 1 in vitro in the cisplatin-resistant ovarian cancer cell line, A2780cis, alone or in the presence of cisplatin. A microscopic examination of apoptotic morphologic changes was also carried out right before the measurement of Caspase-3/7 activity, in order to confirm that the data on the activation of the Caspase-3/7 following treatment is consistent with morphological change and reflects cell death.

[2] = system: cisplatin-resistant ovarian cancer cell line A2780cis; experiment: CellTiter-Blue cell viability assay, compound alone or with cisplatin or carboplatin, 24 h; assay type: cell-based, human; settings: for viability at 10 µM / viability at 20 µM / viability at 50 µM: Homo sapiens, A2780cis, read-out: survival (%) of cells with compound alone; for viability at 10 µM / viability at 20 µM / viability at 50 µM / survival (%) of cells with compound and cisplatin (20 μM) / Survival (%) of cells with compound and carboplatin (200 μM) / survival (%) of cells with compound alone: 24 h; for response in the CellTiter-Blue cell viability assay: in words
Description: Data were expressed as mean±standard deviation. A Student's t test was used for the comparisons between the treatment with the combination of analogs with cisplatin and with analogs alone. P<0.05 was considered statistically significant. Combination index was calculated using CompuSyn software. A value of 0.3-0.7 for the combination index indicates synergism, 0.1-0.3 indicates strong synergism, and <0.1 indicates very strong synergism (Chou, 2006).
To further validate the activity of the identified 11 active compounds (see FIG. 3), a CellTiter-Blue cell viability assay was performed with increasing concentrations (10 μM, 20 μM and 50 μM) of the disclosed compounds (see FIG. 4 and Table 5). Cisplatin resistant ovarian cancer cells (A2780cis) were treated with a disclosed compound alone, cisplatin alone or a combination of a compound with cisplatin for 24 h to determine the effects of the compounds on cell viability.
Analysis of the effect of the disclosed compounds with another platinum-containing compound, carboplatin, was performed. A2780cis cells were treated with carboplatin alone or with the combination of carboplatin and the disclosed compounds at indicated concentrations for 24 h followed by the analysis of cell viability.

[3] = Table 1, compound 20 μM with 20 μM cisplatin
[4] = Table 1, compound 20 μM, mean ± S.D. of triplicates
[5] = compound 10 μM, untreated cells = 100%
[6] = compound 20 μM, untreated cells = 100%
[7] = compound 50 μM, untreated cells = 100%
[8] = compound 10 μM + cisplatin 20 μM
[9] = compound 20 μM + cisplatin 20 μM
[10] = compound 50 μM + cisplatin 20 μM
[11] = Table 3, compound 20 μM with 20 μM of cisplatin

Row | SMILES | caspase-3/7 activity (Lum), compound with cisplatin [1, 3] [Lum] | caspase-3/7 activity (Lum), compound alone [1, 4] [Lum] | caspase-3/7 activity (Lum), compound alone ([1]; Table 2, compound 20 μM) [Lum] | activity in the screen (Caspase-3/7 activity and microscopic examination), active / inactive [1] | Caspase-3/7 activity upon combination with cisplatin compared to cisplatin alone or compound alone [1] | viability at 10 µM [2, 5] [%] | viability at 20 µM [2, 6] [%] | viability at 50 µM [2, 7] [%] | survival (%) of cells with compound and cisplatin (20 μM) [2, 8] [%] | survival (%) of cells with compound and cisplatin (20 μM) [2, 9] [%] | survival (%) of cells with compound and cisplatin (20 μM) [2, 10] [%] | caspase-3/7 activity (Lum), compound with cisplatin [1, 11] [Lum] | caspase-3/7 activity (Lum), compound alone ([1]; Table 3, compound 20 μM) [Lum] | caspase-3/7 activity (Lum), compound alone ([1]; Table 4, compound 20 μM) [Lum] | also measured
1 | O=c1c2ccccc2[nH]c(=S)n1Cc1cccnc1 [Compound 1-4] | 93 ± 5 | 13 ± 1 | 13 ± 1 | active | increase in Caspase-3/7 activity | 95.9 ± 2.4 | 95.6 ± 1.3 | 91.8 ± 2.9 | 89.8 ± 0.1 | 61.2 ± 3.4 | 20.9 ± 1.3 |  |  |  | 
2 | Cc1cccc(-n2c(=S)[nH]c3cc(Cl)ccc3c2=O)c1C [Compound 1-21] | 90 ± 6 | 17 ± 3 | 17 ± 3 | active | increase in Caspase-3/7 activity | 102 ± 1.4 | 100 ± 1.5 | 84.9 ± 2.9 | 90.8 ± 1.4 | 63.1 ± 6.8 | 26.7 ± 2.0 |  |  |  | 
3 | O=c1c2ccccc2[nH]c(=S)n1Cc1ccccc1 [Compound 1-30] | 111 ± 8 | 18 ± 2 | 18 ± 2 | active | increase in Caspase-3/7 activity | 95 ± 2.6 | 95.4 ± 0.9 | 98.1 ± 0.9 | 73.4 ± 6.9 | 52.4 ± 1.2 | 53.2 ± 5.0 |  |  |  | 
4 | O=C1NC(=S)NC(=O)C1=Cc1c[nH]c2ccccc12 [Compound 2-7] |  |  |  | active |  |  |  |  | 91.9 ± 14.0 | 76.1 ± 6.6 | 39.4 ± 5.2 | 41 ± 3 | 25 ± 1 | 25 ± 1 | viability at 10 µM [2]: 97 ± 1.5%; viability at 20 µM [2]: 93.3 ± 3.6%; viability at 50 µM [2]: 47.2 ± 1.8%
5 | Cc1ccc(NC(=S)NC(=O)c2cccs2)nc1 [Compound 2-19] |  |  |  | active |  | 97.3 ± 1.8 | 95.9 ± 2.1 | 95.1 ± 6.4 | 100.4 ± 1.2 | 85.4 ± 9.6 | 53.2 ± 16.0 | 50 ± 8 | 9 ± 1 | 9 ± 1 | 
6 | O=C(NC(=S)Nc1ccccn1)c1ccccc1 [Compound 2-32] |  |  |  | active |  | 97.2 ± 2.9 | 96 ± 1.7 | 81.8 ± 5.2 | 102.7 ± 3.9 | 64.9 ± 10.6 | 33.4 ± 11.8 | 4 ± 1 | 0 ± 1 | 0 ± 1 | activity in the Caspase-3/7 activity assay [1]: lack of activity; response in the CellTiter-Blue cell viability assay [2]: positive response
7 | CC(C)C(=O)NC(=S)Nc1nc2ccc(Cl)cc2s1 [Compound 2-33] |  |  |  | active |  | 84.8 ± 4.1 | 77.9 ± 1.1 | 65 ± 6.4 | 92.5 ± 4.8 | 70.4 ± 4.9 | 58.6 ± 7.4 | 23 ± 3 | 11 ± 2 | 11 ± 2 | activity in the Caspase-3/7 activity assay [1]: lack of activity; response in the CellTiter-Blue cell viability assay [2]: positive response
8 | COc1cc(-n2c(=S)[nH]c3ccccc3c2=O)c(Cl)cc1Cl [mdivi-1, reference compound] | 102 ± 3 | 28 ± 5 | 28 ± 5 |  |  |  |  |  | 87.4 ± 2.9 | 39.2 ± 2.7 | 26.3 ± 3.4 | 80 ± 11 | 20 ± 3 | 20 ± 3 | caspase-3/7 activity (Lum) with compound and cisplatin (20 μM) ([1]; compound 5 μM + cisplatin 20 μM): 22 ± 2 Lum; caspase-3/7 activity (Lum) with compound alone ([1]; compound 5 μM): 10 ± 1 Lum; caspase-3/7 activity (Lum) with compound and cisplatin (20 μM) [1, 8]: 24 ± 3 Lum; caspase-3/7 activity (Lum) with compound alone ([1]; compound 10 μM): 10 ± 1 Lum; caspase-3/7 activity (Lum) with compound and cisplatin (20 μM) [1, 9]: 84 ± 3 Lum; caspase-3/7 activity (Lum) with compound alone ([1]; compound 20 μM): 24 ± 2 Lum; Survival (%) of cells with compound and carboplatin (200 μM) ([2]; compound 10 μM + carboplatin 200 μM): 92.6 ± 3.5%; survival (%) of cells with compound alone [2, 5]: 98.4 ± 2.4%; Survival (%) of cells with compound and carboplatin (200 μM) ([2]; compound 20 μM + carboplatin 200 μM): 75.1 ± 3.9%; survival (%) of cells with compound alone [2, 6]: 78.4 ± 3.8%; Survival (%) of cells with compound and carboplatin (200 μM) ([2]; compound 50 μM + carboplatin 200 μM): 40.6 ± 3.0%; survival (%) of cells with compound alone [2, 7]: 61.6 ± 4.4%

From patent US10478437B2, “Combination therapy to enhance the anticancer efficacy of platinum drugs” (University of Pittsburgh-of the Commonwealth System of …, priority 2014, dated 2019)
